Values of other authors, collected in patent US7517540B2, “Cranberry seed oil extract and compositions containing components thereof” (priority 1999, dated 2009).

Columns and labels:
MCF-7 = conditions: for Inhibition of proliferation, MCF-7 (Table 5): alone, 1:1 or 1:1:1 combinations; for IC50, inhibition of proliferation of MCF-7: MCF-7 (estrogen receptor-positive), combinations with tamoxifen 1:1
MDA-MB-435 = conditions: for Inhibition of proliferation, MDA-MB-435 (Table 5): alone, 1:1 or 1:1:1 combinations; for IC50, inhibition of proliferation of MDA-MB-435: MDA-MB-435 (estrogen receptor-negative), combinations with tamoxifen 1:1
[1] = fed to hypercholesterolemic chicken

Row | IC50, inhibition of proliferation of MCF-7 (MCF-7) [µg/mL] | IC50, inhibition of proliferation of MDA-MB-435 (MDA-MB-435) [µg/mL] | SMILES | Inhibition of proliferation, MCF-7 (Table 5) (MCF-7) | Inhibition of proliferation, MDA-MB-435 (Table 5) (MDA-MB-435) | Hypocholesterolemic potency compared [1]
1 | 6 ± 0.3 | 90 ± 3 | CC(C)=CCC/C(C)=C/CC/C(C)=C/CC[C@]1(C)CCc2c(C)c(O)c(C)c(C)c2O1 [α-Tocotrienol] |  |  | 
2 | 2 ± 0.05 | 90 ± 3 | CC(C)=CCC/C(C)=C/CC/C(C)=C/CC[C@]1(C)CCc2cc(O)cc(C)c2O1 [δ-Tocotrienol] |  |  | more potently hypocholesterolemic than α-tocopherol, TRF, or α-tocotrienol

Further lines, the compound ahead of its results:

Row | SMILES | IC50, inhibition of proliferation of MCF-7 (MCF-7) [µg/mL] | IC50, inhibition of proliferation of MDA-MB-435 (MDA-MB-435) [µg/mL] | Inhibition of proliferation, MCF-7 (Table 5) (MCF-7) | Inhibition of proliferation, MDA-MB-435 (Table 5) (MDA-MB-435) | Hypocholesterolemic potency compared [1]
3 | COc1ccc(-c2cc(=O)c3c(OC)c(OC)c(OC)c(OC)c3o2)cc1 [Tangeretin only, Tangeretin] |  |  | 0.4 | 0.5 | 
4 | Cc1c(C)c2c(c(C)c1O)CC[C@@](C)(CCC[C@H](C)CCC[C@H](C)CCCC(C)C)O2 [α-Tocopherol] | 125 ± 3 | >1000 |  |  | 
5 | CC(C)=CCC/C(C)=C/CC/C(C)=C/CC[C@]1(C)CCc2cc(O)c(C)c(C)c2O1 [γ-Tocotrienol] | 2 ± 0.1 | 30 ± 2 | 2 | 30 | more potently hypocholesterolemic than α-tocopherol, TRF, or α-tocotrienol
